Test: Inhibition of p38 MAPK

**Q.** With `Cc1ccccc1N1N=C(c2c(-c3ccc(F)cc3F)nc3ccccn23)CCC1=O` as the compound, how does the IC50 read?
**A.** 8 nM

**Q.** With `Nc1ccn2c(-c3ccncn3)c(-c3ccccc3)nc2n1` as the compound, how does the IC50 read?
**A.** 990 nM

**Q.** For `CCN(CC)CCCn1ccc2cc(C(=O)N3CCC(Cc4ccccc4)CC3)c(Cl)cc21`, which IC50 is on record?
**A.** 200 nM

**Q.** Which IC50 does the source give for `O=C1CCC(c2c(-c3ccc(F)cc3F)nc3ccccn23)=NN1c1c(Cl)cccc1Cl` here?
**A.** 8 nM

**Q.** With `O=C1NCc2c(-c3ccc(F)cc3Cl)cc(C3CCN(CC4CCC4)CC3)cc2N1c1c(Cl)cccc1Cl` as the compound, how does the IC50 read?
**A.** 0.6 nM

**Q.** With `O=c1ccc(-c2c(-c3ccc(F)cc3)nc3ccccn23)nn1-c1c(Cl)cccc1Cl` as the compound, how does the IC50 read?
**A.** 49 nM

**Q.** Which IC50 does the source give for `CC(C)(C)N1CCC(c2cc(-c3ccc(F)cc3Cl)c3c(c2)N(c2c(Cl)cccc2Cl)C(=O)NC3)CC1` here?
**A.** 0.2 nM

**Q.** For `O=C1NCc2c(-c3ccc(F)cc3Cl)cc(C3CCN(CC4CC4)CC3)cc2N1c1c(Cl)cccc1Cl`, which IC50 is on record?
**A.** 0.5 nM

**Q.** With `Cc1ccc(NC(=O)c2ccnc(N3CCOCC3)c2)cc1Nc1ccnc(OC2CCN(C)CC2)n1` as the compound, how does the IC50 read?
**A.** 40 nM

**Q.** With `O=C1CCC(c2c(-c3cccc(C(F)(F)F)c3)nc3ccccn23)=NN1c1ccccc1Cl` as the compound, how does the IC50 read?
**A.** 170 nM

**Q.** For `COC[C@H](C)Nc1cc(-c2c(-c3ccccc3)nc3nc(N)ccn23)ccn1`, which IC50 is on record?
**A.** 2 nM

**Q.** With `Nc1ccn2c(-c3ccnc(NCc4ccccc4)c3)c(-c3ccc(F)cc3)nc2n1` as the compound, how does the IC50 read?
**A.** 6 nM

**Q.** Which IC50 does the source give for `Cc1ccccc1Sc1ccc2c(n1)CNC(=O)N2c1c(Cl)cccc1Cl` here?
**A.** 110 nM

**Q.** Which IC50 does the source give for `COc1ccc(C#CC(C)(C)N)cc1C(=O)c1ccc(Nc2ccc(F)cc2F)cc1` here?
**A.** 14 nM

**Q.** For `O=C(c1ccc2[nH]cc(CN3CCOCC3)c2c1)N1CCC(Cc2ccccc2)CC1`, which IC50 is on record?
**A.** 6600 nM

**Q.** With `Cc1ccccc1-c1nc(N(C(N)=O)c2c(F)cccc2F)c2ncn(C)c2n1` as the compound, how does the IC50 read?
**A.** 140 nM

**Q.** With `Fc1ccc(-c2[nH]c3ccc4[nH]c(Cc5ccccc5)nc4c3c2-c2ccncc2)cc1` as the compound, how does the IC50 read?
**A.** 22 nM

**Q.** For `O=C(c1cccc2[nH]ccc12)N1CCN(Cc2ccccc2)CC1`, which IC50 is on record?
**A.** 4700 nM

**Q.** Which IC50 does the source give for `COc1cc2[nH]ccc2cc1C(=O)N1C[C@H](C)N(Cc2ccccc2)C[C@H]1C` here?
**A.** 1300 nM

**Q.** Which IC50 does the source give for `Nc1nc(N)c(F)c(-c2nc(-c3cccc(C(F)(F)F)c3)c(-c3ccncc3)[nH]2)c1F` here?
**A.** 470 nM

**Q.** Which IC50 does the source give for `O=C1NCc2nc(Sc3ccccc3)ccc2N1c1c(Cl)cccc1Cl` here?
**A.** 270 nM

Source: ChEMBL document CHEMBL1154481, “Pharmacophore modeling of diverse classes of p38 MAP kinase inhibitors” (Eur J Med Chem, 2008)
